# Measured values: patent publication US11225475B2, “Substituted pyridines as inhibitors of histone deacetylase” (Alkermes, Inc., priority 2017, dated 2022)
# Columns and labels:
# [1] = tested on: human myeloid (CFU-GM) progenitors; experiment: Myeloid CFU assay (human bone marrow clonogenic progenitors); assay type: cell-based; conditions: 14 days in culture
# Description: (§1) Clonogenic progenitors of human erythroid (CFU-E, BFU-E), granulocyte-monocyte (CFU-GM) and multipotential (CFU-GEMM) lineages were assessed in a semi-solid methylcellulose-based media formulation containing rhIL-3 (10 ng/mL), rhGM-SCF (10 ng/mL), rhSCF (50 ng/mL) and Epo (3 U/mL).
# (§2) Normal human bone marrow light density cells derived from normal bone marrow (NorCal Biologics, California) and qualified at ReachBio, were stored in the gaseous phase of liquid nitrogen (−152° C.) until required for the assay. On the day of the experiment, the cells were thawed rapidly, the contents of each vial was diluted in 10 mL of Iscove's modified Dulbecco's medium containing 10% fetal bovine serum (IMDM+10% FBS) and washed by centrifugation (approximately 1200 r.p.m. for 10 minutes, room temperature). The supernatant was discarded and the cell pellets resuspended in a known volume of IMDM+10% FBS. A cell count (3% glacial acetic acid) and viability assessment (trypan blue exclusion test) was performed for the bone marrow sample.
# (§3) On the day of the experiment, the compounds were dissolved in DMSO to a stock concentration of 10 mM. Serial dilutions were prepared from the stock concentration to achieve concentrations of 2 and 0.4 mM. When added to the methylcellulose-based media at 1:1000 (v/v), the final test concentrations of 10, 2 and 0.4 μM were achieved. Additionally, 5-FU was evaluated at 1.0, 0.1 and 0.01 μg/mL.
# (§4) Clonogenic progenitors of the human erythroid (CFU-E and BFU-E) and myeloid (CFU-GM) lineages were set up in the methylcellulose-based media formulations described above. All compounds were added to the medium to give the final desired concentrations ([…] 5-Fluorouracil (Sigma Aldrich) was used as a positive control for progenitor proliferation (inhibition of colony growth) and was introduced to the human bone marrow cultures at 1.0, 0.1, and 0.01 μg/mL. Solvent control cultures (containing no compound but 0.1% DMSO) as well as standard controls (containing no compound and no DMSO) were also initiated.
# (§5) Human myeloid and erythroid progenitor assays were initiated at 2.0×10^4 cells per culture. Following 14 days in culture, myeloid and erythroid colonies were assessed microscopically and scored by trained personnel. The colonies were divided into the following categories based on size and morphology: CFU-E, BFU-E, CFU-GM and CFU-GEMM.
# (§6) The mean±one standard deviation of three replicate cultures was calculated for progenitors of each category (CFU-E, BFU-E, etc.). Two-tailed t-tests were performed to assess if there was a difference in the number of colonies generated between solvent control and treated cultures. Due to the potential subjectivity of colony enumeration, a p value of less than 0.01 is deemed significant. To calculate the concentration of 50% inhibition of colony growth (IC50) for each compound, a dose response curve was generated plotting the log of the compound concentration versus the percentage of control colony growth using XLfit software (IDBS). The concentration of 50% inhibition of colony growth (IC50) was calculated based on the sigmoid curve fit using Dose-Response, One-Site Model formula: y=A+[(B−A)/(1+((C/x)^D))], where A=the initial value (baseline response), B=maximum response, C=center (drug concentration that provokes a response halfway between A and B) and D=slope of the curve at midpoint. Further, plots and additional dose response curves were generated using GraphPad Prism 7.0.
# (§7) Erythroid (CFU-E and BFU-E), myeloid (CFU-GM) and multi-potential (CFU-GEMM) colony enumeration was performed by trained personnel. The distribution of colony types as well as general colony and cellular morphology was analyzed. For statistical analysis colony numbers in compound treated cultures were compared to the solvent control cultures. […] The experiment was used to evaluate the potential effect of test compounds on human erythroid and myeloid progenitor proliferation in a methylcellulose-based medium. […]
# [2] = tested on: human erythroid (CFU-E, BFU-E) progenitors; experiment: Erythroid CFU assay (human bone marrow clonogenic progenitors); assay type: cell-based; conditions: for Erythroid % control remaining @ 10 uM dose: 14 days in culture
# Description: as §1, §2, §3, §4, §5, §6, §7
# [3] = molecular target: T1, HDAC2 (Homo sapiens (Human), UniProt Q92769); experiment: HDAC2 enzymatic assay (deacetylation of peptide substrate, Caliper LabChip); assay type: biochemical; conditions: reaction time 17 hours, 25° C.
# Description: (§8) The following describes an assay protocol for measuring the deacetylation of a peptide substrate by the enzymes HDAC2 or HDAC1. Enzyme, substrate, and cofactors are combined in a well of a microtiter plate and incubated for […] at 25° C. At the end of the incubation, the reaction is quenched by the addition of an SDS-containing buffer. Substrate and product are separated and quantified electrophoretically using the microfluidic-based LabChip 3000 Drug Discovery System from Caliper Life Sciences. The peptide substrate used in this assay is FAM-TSRHK(AC)KL-CONH2 (FAM is carboxyfluorescein). Peptide should be >98% purity by Capillary Electrophoresis. • 1. To a well of a 384-well plate, add 5 μL of 2× enzyme buffer. Using Labcyte Echo 550, add 100 nl compound. Enzyme and compound may be pre-incubated at this time if desired. • 2. Add 5 μL of 2× substrate buffer. • 3. Incubate plate at 25° C. for 17 hours. • 4. Terminate reaction by adding 40 μL of 1.55× stop buffer. • 5. Create job on a Caliper LabChip® 3000 Drug Discovery System. • 6. Load the plate and start electrophoresis using blue laser (480 nm) for excitation and green CCD (520 nm) for detection (CCD2). Reaction time=17 hours; Reaction temperature=25° C.
# (§9) 1% DMSO (from compound) 1 μM FAM-TSRHK(AC)KL-CONH2 5 nM HDAC Enzyme (specific activity may vary from lot-to-lot, and enzyme concentration may need to be adjusted to yield ˜10-20% conversion of substrate to product).
# (§10) Substrate and product peptides present in each sample are separated electrophoretically using the LabChip 3000 capillary electrophoresis instrument. As substrate and product peptides are separated, two peaks of fluorescence are observed. Change in the relative fluorescence intensity of the substrate and product peaks is the parameter measured, reflecting enzyme activity. Capillary electrophoregramms (RDA acquisition files) are analyzed using HTS Well Analyzer software (Caliper Life Sciences). The enzyme activity in each sample is determined as the product to sum ratio (PSR):P/(S+P), where P is the peak height of the product peptide and S is the peak height of the substrate peptide. For each compound, enzyme activity is measured at various concentrations (12 concentrations of compound spaced by 3× dilution intervals). Negative control samples (0%-inhibition in the absence of inhibitor) and positive control samples (100%-inhibition, in the presence of 20 mM EDTA) are assembled in replicates of four and are used to calculate %-inhibition values for each compound at each concentration. Percent inhibition (Pinh) is determined using following equation: Pinh=(PSR0%−PSRinh)/(PSR0%−PSR100%)*100, where PSRinh is the product sum ratio in the presence of inhibitor, PSR0% is the average product sum ration in the absence of inhibitor and PSR100% is the average product sum ratio in 100%-inhibition control samples.
# (§11) The IC50 values of inhibitors are determined by fitting the inhibition curves (Pinh versus inhibitor concentration) by 4 parameter sigmoidal dose-response model using XLfit 4 software (MDS).
# [4] = molecular target: HDAC1 (Homo sapiens (Human), UniProt Q13547); experiment: HDAC1 enzymatic assay (deacetylation of peptide substrate, Caliper LabChip); assay type: biochemical; conditions: reaction time 17 hours, 25° C.
# Description: as §8, §9, §10, §11
# [5] = molecular target: T1, HDAC2; experiment: HDAC2 enzymatic inhibition assay in SH-SY5Y cell lysate (HDAC-Glo 2); assay type: cell-based; conditions: SH-SY5Y cells, five hours incubation
# Description: SH-SY5Y cells (Sigma) were cultured in Eagle's Modified Essential Medium supplemented with 10% fetal bovine serum and pen/strep. Twenty-four hours prior to compound dosing 20 uL of cells were plated in white 384 well plates at a density of 1,500 cells/well. Compounds were serially diluted in neat DMSO and then diluted 1:100 v/v into media without FBS and mixed. Media was removed from the plated cells and the diluted compounds in serum free media (1% v/v final DMSO) were added and incubated at 37.0 for five hours. Ten uL of HDAC-Glo 2 reagent with 0.1% Triton X-100 was then added, the plate was mixed and allowed to develop at room temperature for 100 minutes. Plates were then read with a Spectramax LMax luminometer employing a 0.4s integration time. Dose response curves were constructed with normalized data where CI-994 at 100 uM was defined as 100% inhibition and DMSO alone as 0% inhibition.
# Chain of HDAC1 (Q13547 whole entry): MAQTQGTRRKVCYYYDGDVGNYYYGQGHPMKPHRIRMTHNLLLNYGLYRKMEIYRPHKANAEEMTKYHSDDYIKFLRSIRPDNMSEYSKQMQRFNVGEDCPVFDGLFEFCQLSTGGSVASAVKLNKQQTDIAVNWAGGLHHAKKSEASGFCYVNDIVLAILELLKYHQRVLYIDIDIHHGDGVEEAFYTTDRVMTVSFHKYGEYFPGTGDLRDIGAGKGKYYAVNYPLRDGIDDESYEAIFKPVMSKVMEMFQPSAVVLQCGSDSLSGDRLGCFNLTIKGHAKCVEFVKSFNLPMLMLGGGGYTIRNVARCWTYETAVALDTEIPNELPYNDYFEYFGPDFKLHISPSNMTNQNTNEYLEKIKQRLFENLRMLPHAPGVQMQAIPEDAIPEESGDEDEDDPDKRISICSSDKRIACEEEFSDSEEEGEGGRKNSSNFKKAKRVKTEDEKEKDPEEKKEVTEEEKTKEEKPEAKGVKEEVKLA
# T1 sequence (Q92769 whole entry): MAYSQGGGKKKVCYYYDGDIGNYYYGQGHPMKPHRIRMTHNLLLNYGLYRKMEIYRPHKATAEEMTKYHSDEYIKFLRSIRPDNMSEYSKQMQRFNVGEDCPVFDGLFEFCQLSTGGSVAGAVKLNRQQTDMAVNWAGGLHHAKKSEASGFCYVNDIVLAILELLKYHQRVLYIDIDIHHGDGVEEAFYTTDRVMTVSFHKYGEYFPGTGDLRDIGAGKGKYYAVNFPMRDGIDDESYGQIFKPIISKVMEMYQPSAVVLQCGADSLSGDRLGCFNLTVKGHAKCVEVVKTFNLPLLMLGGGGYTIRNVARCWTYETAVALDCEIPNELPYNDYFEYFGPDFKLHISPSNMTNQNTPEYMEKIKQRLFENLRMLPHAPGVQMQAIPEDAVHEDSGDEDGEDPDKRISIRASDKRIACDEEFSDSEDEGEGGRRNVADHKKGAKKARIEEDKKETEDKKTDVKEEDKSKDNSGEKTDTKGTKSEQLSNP
compound,measurement,setting,value
"COCc1cc2c(cn1)CN(C(=O)Nc1nc(-c3ccc(F)cc3)ccc1N)C2 [Comparator 6, reference compound]",Myeloid % control remaining @ 10 uM dose,[1],58.9%
same,Erythroid % control remaining @ 10 uM dose,[2],22.9%
"Nc1ccc(-c2ccc(F)cc2)nc1NC(=O)N1Cc2cc(CN3CC(F)C3)cnc2C1 [Comparator 7, reference compound]",Myeloid % control remaining @ 10 uM dose,[1],82%
same,Erythroid % control remaining @ 10 uM dose,[2],35%
CCn1cc2c(n1)CN(C(=O)Nc1nc(-c3ccc(F)cc3F)ccc1N)C2 [Compound 10],IC50,[3],100 to 500 nM
same,Myeloid % control remaining @ 10 uM dose,[1],77%
same,Erythroid % control remaining @ 10 uM dose,[2],38%
same,IC50,[4],100 to 500 nM
same,IC50,[5],100 to 1000 nM
COCc1ccc2c(n1)CN(C(=O)Nc1nc(-c3ccc(F)cc3F)ccc1N)C2 [Compound 2],IC50,[3],500 to 5000 nM
same,Myeloid % control remaining @ 10 uM dose,[1],92%
same,Erythroid % control remaining @ 10 uM dose,[2],62%
same,IC50,[4],100 to 500 nM
same,IC50,[5],1000 to 1500 nM
"O=c1[nH]cc(F)c(=O)[nH]1 [Compound 5-FU, 5-Fluorouracil, reference compound]",inhibitory effects as positive control for toxicity,"[2]; erythroid and myeloid progenitor assays, 1.0, 0.1 and 0.01 μg/mL",exactly as expected
"COCc1ccc2c(n1)CN(C(=O)Nc1nc(-c3ccc(F)cc3)ccc1N)C2 [Comparator 8, reference compound]",Myeloid % control remaining @ 10 uM dose,[1],70%
same,Erythroid % control remaining @ 10 uM dose,[2],33%
Cc1cc2c(cn1)CN(C(=O)Nc1nc(-c3ccc(F)cc3F)ccc1N)C2 [Compound 1],IC50,[3],100 to 500 nM
same,Myeloid % control remaining @ 10 uM dose,[1],100%
same,Erythroid % control remaining @ 10 uM dose,[2],53%
same,IC50,[4],100 to 500 nM
same,IC50,[5],100 to 1000 nM
"CCc1ncc2c(n1)CN(C(=O)Nc1nc(-c3ccc(F)cc3)ccc1N)C2 [Comparator 9, reference compound]",Myeloid % control remaining @ 10 uM dose,[1],79%
same,Erythroid % control remaining @ 10 uM dose,[2],60%
CCc1ncc2c(n1)CN(C(=O)Nc1nc(-c3ccc(F)cc3F)ccc1N)C2 [Compound 7],IC50,[3],500 to 5000 nM
same,Myeloid % control remaining @ 10 uM dose,[1],105%
same,Erythroid % control remaining @ 10 uM dose,[2],69%
same,IC50,[4],100 to 500 nM
same,IC50,[5],100 to 1000 nM
"COCCn1cc2c(n1)CN(C(=O)Nc1nc(-c3cccs3)ccc1N)C2 [Comparator 3, reference compound]",Myeloid % control remaining @ 10 uM dose,[1],9%
same,Erythroid % control remaining @ 10 uM dose,[2],18%
"CCn1cc2c(n1)CN(C(=O)Nc1nc(-c3ccc(F)cc3)ccc1N)C2 [Comparator 1, reference compound]",Myeloid % control remaining @ 10 uM dose,[1],34%
same,Erythroid % control remaining @ 10 uM dose,[2],22%
Cc1ncc2c(n1)CN(C(=O)Nc1nc(-c3ccc(F)cc3F)ccc1N)C2 [Compound 5],IC50,[3],500 to 5000 nM
same,Myeloid % control remaining @ 10 uM dose,[1],82%
same,Erythroid % control remaining @ 10 uM dose,[2],69%
same,IC50,[4],500 to 5000 nM
same,IC50,[5],1000 to 1500 nM
COCCn1cc2c(n1)CN(C(=O)Nc1nc(-c3ccccc3F)ccc1N)C2 [Compound 8],IC50,[3],500 to 5000 nM
same,Myeloid % control remaining @ 10 uM dose,[1],75%
same,Erythroid % control remaining @ 10 uM dose,[2],72%
same,IC50,[4],100 to 500 nM
same,IC50,[5],100 to 1000 nM
Nc1ccc(-c2ccc(F)cc2F)nc1NC(=O)N1Cc2cnc(CN3CC(F)C3)cc2C1 [Compound 4],IC50,[3],500 to 5000 nM
same,Myeloid % control remaining @ 10 uM dose,[1],102%
same,Erythroid % control remaining @ 10 uM dose,[2],62%
same,IC50,[4],100 to 500 nM
same,IC50,[5],1000 to 1500 nM
"Cc1cc2c(cn1)CN(C(=O)Nc1nc(-c3ccc(F)cc3)ccc1N)C2 [Comparator 5, reference compound]",Myeloid % control remaining @ 10 uM dose,[1],66.1%
same,Erythroid % control remaining @ 10 uM dose,[2],25.7%
"COCCn1cc2c(n1)CN(C(=O)Nc1nc(-c3ccc(F)cc3)ccc1N)C2 [Comparator 4, reference compound]",Myeloid % control remaining @ 10 uM dose,[1],39%
same,Erythroid % control remaining @ 10 uM dose,[2],28%
"Cc1nc2c(s1)CN(C(=O)Nc1nc(-c3ccc(F)cc3)ccc1N)C2 [Comparator 2, reference compound]",Myeloid % control remaining @ 10 uM dose,[1],103%
same,Erythroid % control remaining @ 10 uM dose,[2],45%
COCCn1cc2c(n1)CN(C(=O)Nc1nc(-c3ccc(Cl)s3)ccc1N)C2 [Compound 6],IC50,[3],500 to 5000 nM
same,Myeloid % control remaining @ 10 uM dose,[1],82%
same,Erythroid % control remaining @ 10 uM dose,[2],69%
same,IC50,[4],500 to 5000 nM
same,IC50,[5],> 1500 nM
COCc1cc2c(cn1)CN(C(=O)Nc1nc(-c3ccccc3F)ccc1N)C2 [Compound 9],IC50,[3],500 to 5000 nM
same,Myeloid % control remaining @ 10 uM dose,[1],102%
same,Erythroid % control remaining @ 10 uM dose,[2],87%
same,IC50,[4],100 to 500 nM
same,IC50,[5],100 to 1000 nM
Cc1nc2c(s1)CN(C(=O)Nc1nc(-c3ccc(F)cc3F)ccc1N)C2 [Compound 3],IC50,[3],500 to 5000 nM
same,Myeloid % control remaining @ 10 uM dose,[1],109%
same,Erythroid % control remaining @ 10 uM dose,[2],89%
same,IC50,[4],100 to 500 nM
same,IC50,[5],100 to 1000 nM
